Results taken from patent publication US20260209270A1, “Synthetic Peptide And Construct” (TOAGOSEI CO., LTD., priority 2022, published 2026).
FAM = 5(6)-carboxyfluorescein

Test system: NSC-34 cells
Test: Evaluation of cell membrane permeability by flow cytometry (MFI of FAM fluorescence)
Assay type: cell-based, mouse
Conditions: for MFI: NSC-34 cells; for value of MFI compared with Reference Example 1 (FAM alone): 20 μM
Protocol: As a culture medium of the NSC-34 cell, 10% fetal bovine serum (FBS)-containing Dulbecco's modified Eagle's medium (DMEM (Cat No. 044-29765, manufactured by FUJIFILM Wako Pure Chemical Corporation)) was used. The samples 1 to 6 were each dissolved in dimethyl sulfoxide (DMSO) to prepare sample solutions 1 to 6 with a sample concentration of 4 mM. Then, the sample solutions were diluted in the culture medium to prepare 40 μM sample solutions 1 to 6.
The NSC-34 cell was suspended in the culture medium to prepare a cell suspension of 2×10^5 cells/mL. The cell suspension was added by 1 mL to a well of a commercially available six-hole (well) plate (manufactured by AGC TECHNO GLASS Co., Ltd.) so as to seed the NSC-34 cell to be 2× 10^5 cells/well. […] After that, the six-well plate was left at rest in a cell culture apparatus, and incubated for 20 hours at 37° C. under a 5% CO2 condition.
After the 20-hour incubation, the culture supernatant was removed from the well and the cells in the well were cleaned twice with 1 mL of PBS. Next, 100 μL of the 0.25% trypsin/EDTA solution was added to the well and the incubation was performed for three minutes at 37° C. After the incubation, 900 μL of the culture medium was added to the well to deactivate the trypsin. Subsequently, the cell suspension in the well was transferred to a tube and the cells were collected. This tube was subjected to five-minute centrifugal separation at 4° C. under a condition of 210×g. After the centrifugal separation, the supernatant was removed and the precipitate (cell pellet) was suspended (cleaned) with 1 mL of PBS, which was followed by the centrifugal separation under the same condition as that described above. After this operation was repeated twice, the supernatant was removed and thus, the cells (cell pellet) cultured in the culture medium containing the sample 1 were obtained.
Regarding the obtained cells (cell pellet), the cell membrane permeability of the sample 1 was analyzed using a flow cytometer. As the flow cytometer, On-Chip Flowcytometer (manufactured by On-Chip Biotechnologies Co., LTD.) was used.
For such an analysis, the obtained cell pellet was suspended with 100 μL of on-chip T buffer to prepare a cell suspension for analysis.
Using the aforementioned flow cytometer, gating based on forward scatter (FSC) and side scatter (SSC) was performed to set a gate about a cell group to be analyzed, and the fluorescence intensity was measured about the cell group in this gate. Note that the number of cells of the cell group was set to at least 10000 or more in the analysis. The fluorescence intensity was measured using a fluorescence detector FL2 of the flow cytometer (optimum detection wavelength around 543 nm) capable of detecting the fluorescence wavelength of FAM. Regarding this measurement result, the analysis was performed using commercially available analysis software “FlowJo” (manufactured by TreeStar) to obtain mean fluorescence intensity (MFI) of the cell group to be measured. […]

[1] = Test 1, sample/FAM concentration 20 μM in culture medium, 20 hours incubation at 37° C., detector FL2
[2] = Test 2, sample/FAM concentration 25 μM in culture medium, otherwise similar to Test 1

Row | Substance | MFI [1] | MFI [2] | value of MFI compared with Reference Example 1 (FAM alone) (Test 1)
1 | 5(6)-carboxyfluorescein [Reference Example 1, reference compound] | 10.9 | 13.1 | 
2 | Ac-PD-FAM [Example 5] | 7.8 |  | lower
3 | Ac-PDPD-FAM [Example 1] | 15 |  | 
4 | Ac-PDPDPDPDPDPDG-FAM (Ac-PDPDPDPDPDPDG-{FAM}) [Example 7, construct: N-terminally acetylated peptide 7 bonded to FAM] |  | 27.5 | 
5 | Ac-PDPEG-FAM [Example 3] | 18.9 |  | 
6 | Ac-PDPEPDPEPDPEG-FAM (Ac-PDPEPDPEPDPEG-{FAM}) [Example 9, construct: N-terminally acetylated peptide 9 bonded to FAM] |  | 25.1 | 
7 | Ac-PE-FAM [Example 6] | 7.4 |  | lower
8 | Ac-PEPDG-FAM [Example 4] | 19.9 |  | 
9 | Ac-PEPE-FAM [Example 2] | 16.2 |  | 
10 | Ac-PEPEPEPEPEPEG-FAM (Ac-PEPEPEPEPEPEG-{FAM}) [Example 8, construct: N-terminally acetylated peptide 8 bonded to FAM] |  | 29.3 | 
